According to patent US20180092908A1, “SMALL MOLECULE OXIDIZERS OF PDI AND THEIR USE” (THE TRUSTEES OF COLUMBIA UNIVERSITY IN THE CITY OF NEW YORK, priority 2015, published 2018):
Where two headings read alike, the source gives them in different places.

Columns and labels:
[1] = molecular target: T1, human catalytic PDI A1 a domain (PDIa) (Homo sapiens, UniProt P07237); assay: Isothermal titration calorimetry (ITC) binding to PDIa
T1 construct: made in house; host or cells: Escherichia coli BL21-Gold (DE3)
T1 sequence (P07237 with tags, fused parts or gaps): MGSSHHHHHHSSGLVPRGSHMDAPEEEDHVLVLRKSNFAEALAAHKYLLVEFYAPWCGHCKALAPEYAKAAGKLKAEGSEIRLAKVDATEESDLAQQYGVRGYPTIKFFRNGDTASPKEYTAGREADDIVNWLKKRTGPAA
Protocol: All ITC experiments were carried out at 25° C. on MicoCal Auto-ITC200 system (GE Healthcare). Reduced PDIa was dialyzed into ITC buffer (20 mM sodium phosphate buffer pH 7.8) and loaded into a sample cell at 40 μM concentration. The compound solution was loaded into a syringe at 400 μM in the same ITC buffer with a final DMSO concentration at 0.4% (v/v). ITC titration experiments were carried out at 25° C. with 19 injections, 2 μl per injection, and 180 seconds between each injection. The reference cell power was set to 5 μcal/sec. A control experiment was performed for each compound, where each compound was titrated into buffer to account for heat released due to dilution. This background was subtracted from test data before a final dissociation constant was obtained. Data were analyzed using a one-site binding model in Origin 7.1 software. […] Gibbs free energy, ΔG, was calculated from equation ΔG=ΔH−TΔS. All other parameters, Ka, n, ΔH, ΔS, were determined directly from the titration data.
For ITC experiments with 16F16 pre-treatment, 40 μM PDIa (after dialysis into ITC buffer) was treated with 200 μM 16F16 for 12-15 hours at 4° C. Next day the whole solution was loaded into the sample cell. LOC14 at 400 μM in ITC buffer was loaded into syringe and titrated into PDIa+16F16 loaded cell. For control experiments, ITC buffer with 200 μM 16F16 was used in the cell, while 400 μM LOC14 in ITC buffer was used in the syringe.
The binding mode of LOC14 to PDIa was next investigated using isothermal titration calorimetry (ITC). ITC measures the heat released or absorbed during a biomolecular interaction. It is a direct analytical method for determining the binding and thermodynamic parameters, such as reaction stoichiometry (n), binding constants (Ka and Kd), enthalpy (ΔH), entropy (ΔS), and free energy (ΔG) of an interaction.

PC12 mHTT^Q103 cells = assay: Rescue of PC12 cells from mHTT^Q103 induced cell death (Alamar blue viability); format: cell-based; conditions: Rattus norvegicus, PC-12; Table 5; read-out: Cell Viability Assay EC50
Text: PC12 mHTT^Q103 cells were a gift from Erik S. Schweitzer (UCLA School of Medicine, Los Angeles, Calif.). These cells are stably transfected with the first exon of human HTT gene containing the pathogenic 103 CAG/CAA repeat expansion, under the control of the ecdysteroid promoter (Aiken et al., 2004). The plasmid also contains a Bombyx mori ecdysone receptor gene fused at N-terminal with VP16 transactivation domain (Suhr et al., 1998; Vilaboa et al., 2011). Addition of the ecdysone analog, tebufenozide, to the cell culture medium is used to initiate the transcription of mutant HTT (Aiken et al., 2004).
PC12 mHTT^Q103 cells were cultured in DMEM containing 4.5 g/I glucose, 25 mM HEPES, sodium pyruvate, and no L-glutamine (Mediatech, cat. no. 15-018-CV), supplemented with 10% (v/v) Cosmic Calf serum, 2 mM L-glutamine, 100 units/mL of penicillin-streptomycin, and 0.5 mg/ml active geneticin. Cells were grown at 37° C., 9.5% CO2, and the medium was replaced with fresh medium every 2-3 days. To induce mHTT^Q103 expression for experiments, tebufenozide, a gift from Lynne Moore and Fred H. Gage (The Salk Institute for Biological Studies, La Jolla, Calif.), was added to the medium at 200 nM final concentration from 1 mM stock in 85% ethanol.
LOC mother plates with compounds at 4 mg/ml were thawed and spun down (1000 rpm, 20° C., 1 min) prior to use. Biomek FX (Beckman Coulter) robotic liquid dispenser was used to handle all liquid transferring and mixing. […] Two fold serial dilution was performed across five daughter plates by transferring 50 μl of compounds (at […]) from the D1 plate into 50 μl of PC12 medium in daughter plate D2, mixing, and then repeating the process for the remaining three plates. Daughter plate D1 with compounds at […], daughter plate D3 with compounds at 20 μl/ml and daughter plate D5 with compounds at 5 μl/ml were then used for the screen. Assay plates were set up by seeding tebufenozide-induced PC12 mHTT^Q103 cells into 384-well black, clear-bottom plates (Corning Inc. cat. no. 3712) at a density of 7,500 cells per well in 57 μl PC12 medium without geneticin. Three microliters of compound from the daughter plates (D1, D3, and D5) were added to the assay plates for a final compound concentration of 4 μl/ml, 1 μl/ml, and 0.25 μl/ml. Four wells containing uninduced PC12 mHTT^Q103 cells and four wells containing medium only, were also included on each plate as controls. The assay plates were incubated at 37° C., 9.5% CO2 for 48 hours. Twenty microliters of 40% Alamar blue (Life Technologies cat. no. DAL1100) solution in PC12 medium was added to each well (1:10 final dilution) and the plates were incubated for an additional 12-24 hours at 37° C., 9.5% CO2. Alamar blue fluorescence was read on a fluorescence plate reader (PerkinElmer Victor3) with 530 nm excitation filter and 590 nm emission filter. Each compound concentration was tested in triplicate.
The follow-up testing of primary screen hits was performed in a similar way. Fresh powder stocks of primary hits were re-ordered from vendors, dissolved in DMSO and tested in a two-fold serial dilution across 10 wells in both tebufenozide-induced and uninduced PC12 mHTT^Q103 cells. Dose-response curves were plotted as mean±SD and fit to either four-parameter sigmoidal (for uninduced cells) or bell-shaped (induced) function using Prism (GraphPad Software).
A cascade of two assays was used, involving both a phenotypic high-throughput screening (HTS) assay and an in vitro PDI reductase assay, to identify neuroprotective PDI-inhibiting compounds. […] Alamar blue was used as a fluorescent readout for viability after 48 hours of compound treatment and mHTT^Q103 induction. […] All the candidate hit compounds were re-tested in a two-fold dilution series.

[2] = molecular target: T2, recombinant catalytic a domain of human PDI A1 (PDIa) (Homo sapiens, UniProt P07237); assay: Insulin aggregation assay (PDIa reductase activity); format: biochemical; conditions: Table 5
T2 construct: made in house; host or cells: Escherichia coli BL21-Gold (DE3)
T2 sequence (P07237 with tags, fused parts or gaps): as above
Text: In this insulin aggregation assay (Xu et al., 2012; Jasuja et al., 2012; Khan et al., 2011; Smith et al., 2004), PDIa reduced the two disulfide bonds between the α- and β-chains of insulin, causing the β-chain to aggregate and precipitate, resulting in an increase in absorbance at 650 nm.
To investigate the mode of binding further and to determine whether the binding was reversible or irreversible, the recovery of enzymatic activity of PDIa after dilution of pre-formed concentrated PDIa-LOC14 complexes was analyzed. LOC14 (750 μM) was incubated with a concentrated solution of PDIa (500 μM). The mixture was then diluted 100-fold and PDI's enzymatic activity was measured in the insulin reduction assay. As a control, the same procedure was also performed on the sample containing an irreversible inhibitor, 16F16 (16F16 at 750 μM and PDIa at 500 μM). […] This illustrated that unlike 16F16, LOC14 binding to PDIa is reversible.

[3] = PDIa, Table 5, read-out: ITC Assay KD

| Compound | EC50 (PC12 mHTT^Q103 cells) [nM] | Insulin Assay (either active or inactive) [2] | ITC Assay KD ([1]; PDIa, Table 5) | other results |
| --- | --- | --- | --- | --- |
| O=c1[nH]sc2ccccc12 [BIT fragment, 1,2,Benzisothiazol-3-one] |  |  |  | Kd ([1]; PDIa, Table 4, read-out: ITC KD): 142 nM |
| O=C(c1ccccc1)n1sc2ccccc2c1=O [LC-11] | > 50000 | not active | KD = N/A irreversible or not |  |
| O=c1c2ccccc2sn1CN1CCOCC1 [LC-18] | 547 | Active |  | Kd [1, 3]: 253 nM |
| O=C(NCc1ccc(Br)cc1)c1ccccc1S [LC-20] | > 50000 | not active t | KD = N/A irreversible or not active |  |
| O=C(Nc1ccc(N2CCOCC2)cc1)c1ccccc1S [LC-21] | 696 | not active | KD = N/A irreversible or not active |  |
| O=c1c2ccccc2sn1CN1CCN(Cc2ccccc2)CC1 [LC-22] | 310 | Active |  | Kd [1, 3]: 173 nM |
| O=C(Nc1ccc(Cc2ccccc2)cc1)c1ccccc1S [LC-23] | 3880 | not active | KD = N/A irreversible or not active |  |
| O=c1c2ccccc2sn1-c1ccc(Cc2ccccc2)cc1 [LC-25] | 1590 | not active | KD = N/A irreversible or not active |  |
| O=c1c2ccccc2sn1Cc1ccc(Br)cc1 [LC-26] | 778 | not active | KD = N/A irreversible or not active |  |
| C[C@@H](NC(=O)c1ccccc1S)c1ccccc1 [LC-28] | 808 | not active | KD = N/A irreversible or not active |  |
| C[C@H](c1ccccc1)n1sc2ccccc2c1=O [LC-29] | 519 | Active |  | Kd [1, 3]: 658 nM |
| O=C(Nc1cccc(F)c1)c1ccccc1S [LC-30] | 2990 | not active | KD = N/A irreversible or not active |  |
| O=c1c2ccccc2sn1-c1cccc(F)c1 [LC-31] | 1760 | not active | KD = N/A irreversible or not |  |
| COCCn1sc2ccccc2c1=O [LC-32] | 700 | Active |  | Kd [1, 3]: 158 nM |
| O=C(Nc1ccc(Oc2ccccc2)cc1)c1ccccc1S [LC-33] | 2940 | not active | KD = N/A irreversible or not active |  |
| O=c1[nH]sc2c(Cl)cccc12 [LC-38] |  | not active | KD = N/A irreversible or not active |  |
| O=C(C1CC1)N1CCN(Cn2sc3c(Cl)cccc3c2=O)CC1 [LC-39] |  | not active | KD = N/A irreversible or not active |  |
| O=c1[nH]sc2c(C(F)(F)F)cccc12 [LC-41] |  | not active | KD = N/A irreversible or not active |  |
| O=C(C1CC1)N1CCN(Cn2sc3c(C(F)(F)F)cccc3c2=O)CC1 [LC-42] |  | not active | KD = N/A irreversible or not active |  |
| NC(=O)c1cccc(C(F)(F)F)c1SSc1c(C(N)=O)cccc1C(F)(F)F [LC-45] |  | not active | KD = N/A irreversible or not active |  |
| O=c1ssc2ccccc12 [LC-48] |  | not active |  |  |
| S=c1ssc2ccccc12 [LC-49] |  | not active |  |  |
| O=c1c2cccnc2sn1CCN1CCCCC1 [LC-54] |  | Active |  |  |
| O=c1c2cccnc2sn1CCN1CCOCC1 [LC-55] |  | Active |  |  |
| O=c1c2cccnc2sn1CCC1CCNCC1 [LC-56] |  | Active |  |  |
| Cc1nnc2s[nH]c(=O)c2c1C [LC-57] | 12200 | Active |  |  |
| C[C@H](c1ccccc1)n1sc2ncccc2c1=O [LC-58] |  | Active |  |  |
| O=C(C1CC1)N1CCN(Cn2oc3ccccc3c2=O)CC1 [Oxy-LOC14, 2-((4-(cyclopropanecarbonyl)piperazin-1-yl)methyl)benzo[d]isoxazol-3(2H)-one] |  |  |  | loss in binding affinity compared to LOC14 ([1]; ITC, PDIa): 35 fold; Kd ([1]; reduced PDIa 40 μM, compound 400 μM, 25° C., read-out: dissociation constant (Kd)): 2430 nM |
